Measurements: article PMC3740496, “Synthesis and biological activities of the respiratory chain inhibitor aurachin D and new ring versus chain analogues” (Beilstein Journal of Organic Chemistry, 2013)
Values after ≈ are worked out from the molar mass of the structure shown.

Assays:
Assay type in all cases: cell-based
[1] = tested on: Trypanosoma brucei gambiense strain Feo bloodstream forms; experiment: Antitrypanosomal assay (resazurin); conditions: for IC50: Trypanosoma brucei, GAMBIENSE, 72 h incubation, read-out: IC50 T. brucei gambiense
Experimental: page 10: independent experiments. Chloroquine diphosphate (Sigma–Aldrich) was used as antimalarial drug control. Antitrypanosomal activities: Bloodstream forms of Trypanosoma brucei gambiense strain Feo were cultured in HMI9 medium supplemented with 10% FCS at 37 °C under an atmosphere of 5% CO2. Antitrypanosomal assays were performed as previously described. In all experiments, log-phage cell cultures were harvested by centrifugation at 3,000g and immediately used. Drug assays were based on the conversion of a redox-sensitive dye (resazurin) to a fluorescent product by viable cells. Drug stock solutions were prepared in pure DMSO. […] After a 72 h incubation, resazurin solution was added in each well at the final concentration of 45 µM. Fluorescence was measured at 530 nm excitation and 590 nm emission wavelengths after a further 4 h incubation. Each inhibitor concentration was tested in triplicate. The percentage of inhibition of parasite growth rate was calculated by comparing the fluorescence of parasites maintained in the presence of drug to that in the absence of drug. DMSO was used as a control. IC50s were determined from the dose–response curves with drug concentrations ranging from 100 µM to 50 nM. Pentamidine was used as antitrypanosomal drug control. MIC determination: Indicator strains were obtained from the German Collection of Microorganisms and Cell Cultures (Deutsche Sammlung für Mikroorganismen und Zellkulturen, DSMZ) or were part of our internal strain collection. All microorganisms were handled under standard conditions recommended by the depositor. Overnight S10

[2] = tested on: Plasmodium falciparum FcB1 (chloroquine-resistant); experiment: In vitro antiplasmodial assay ([3H]-hypoxanthine incorporation); conditions: for IC50: Plasmodium falciparum, FCB1, triplicate (except compound 24), mean ±SD, read-out: IC50 P. falciparum FcB1; for antiplasmodial selectivity index: Vero cytotoxic concentration / concentration active on P. falciparum FcB1
Experimental: In vitro antiplasmodial assays: The chloroquine-resistant strain FcB1/Colombia of Plasmodium falciparum was maintained in vitro on human erythrocytes in RPMI 1640 medium supplemented by 8% (v/v) heat-inactivated human serum, at 37 °C, under an atmosphere of 3% CO2, 6% O2, and 91% N2. In vitro drug susceptibility assays was measured by [3H]-hypoxanthine incorporation as described. Drugs were prepared in DMSO at a 10 mg/mL concentration. Compounds were serially diluted two-fold with 100 µL culture medium in 96-well plates. Asynchronous parasite cultures (100 µL, 1% parasitaemia and 1% final hematocrite) were then added to each well and incubated for 24 h at 37 °C prior to the addition of 0.5 µCi of [3H]- hypoxanthine (GE Healthcare, France, 1 to 5 Ci·mmol/mL) per well. After a further incubation of 24 h, plates were frozen and thawed. Cell lysates were then collected onto glass-fiber filters and counted in a liquid scintillation spectrometer. The growth inhibition for each drug concentration was determined by comparison of the radioactivity incorporated in the treated culture with that in the control culture maintained on the same plate. The concentration causing 50% growth inhibition (IC50) was obtained from the drug concentration–response curve and the results were expressed as the mean values ± standard deviations determined from several […]
independent experiments. Chloroquine diphosphate (Sigma–Aldrich) was used as antimalarial drug control. […]

[3] = tested on: HCT-116 human colon carcinoma cells; experiment: Cytotoxicity, growth inhibition (MTT); conditions: Homo sapiens, HCT-116, 120 h, read-out: IC50: half inhibitory concentration, HCT-116
Experimental: (§1) The cytotoxic activity of aurachin D (4) and analogues 9–11 and 17–19 was evaluated in growth inhibition experiments on mammalian cell lines (Table 2). After 5 days treatment, half inhibitory concentrations (IC50) were determined for human HCT-116 colon carcinoma and human K562 myelogenous leukemia cells. […]
(§2) was further incubated for 1.5 h. The medium was then discarded and 100 µL 2-propanol/10 N HCl (250:1) was added in order to dissolve formazan granules. The absorbance at 570 nm was measured using a microplate reader (EL808, Bio-Tek Instruments Inc.) and cell viability was expressed as a percentage relative to the respective solvent control. […]

[4] = tested on: K562 myelogenous leukemia cells; experiment: Cytotoxicity, growth inhibition (MTT); conditions: Homo sapiens, K562, 120 h; 5 days treatment; triplicate, mean ±SD; read-out: IC50: half inhibitory concentration, K562
Experimental: as §1, §2

SMILES	IC50 [1] [µg/mL]	antitrypanosomal selectivity index ([1]; Vero cytotoxic concentration / concentration active on T. brucei gambiense)	IC50 [2] [µg/mL]	antiplasmodial selectivity index [2]	IC50 [3] [µg/mL]	IC50 [4] [µg/mL]
CC(C)=CCC/C(C)=C/CC/C(C)=C/Cc1c(C)[nH]c2ccccc2c1=O [compound 4, aurachin D]	0.4 (≈ 1.1 µM)	35	0.04 ± 0.02 (≈ 0.11 µM)	345	2.23 ± 0.76 (≈ 6.13 µM)	0.65 ± 0.16 (≈ 1.79 µM)
CC(C)=CCC/C(C)=C/Cc1c(C)[nH]c2ccccc2c1=O [compound 9]	1.5 (≈ 5.08 µM)		0.07 ± 0.02 (≈ 0.237 µM)	345	2.52 ± 0.48 (≈ 8.53 µM)	1.5 ± 0.31 (≈ 5.08 µM)
CC(C)=CCCC(C)=CCCC(C)=CCc1c(C)[nH]c2ccc3ccccc3c2c1=O [compound 17]	0.8 (≈ 1.93 µM)		0.51 ± 0.18 (≈ 1.23 µM)		> 10	~10 (≈ 24.2 µM)
COc1ccc2[nH]c(C)c(CC=C(C)CCC=C(C)CCC=C(C)C)c(=O)c2c1 [compound 18]	1.6 (≈ 4.07 µM)		0.2 ± 0.04 (≈ 0.508 µM)		1.64 ± 0.47 (≈ 4.17 µM)	1.15 ± 0.22 (≈ 2.92 µM)
CC(C)=CCCC(C)=CCCC(C)=CCc1c(C)[nH]c2cc3c(cc2c1=O)OCO3 [compound 19]	> 10		0.42 ± 0.09 (≈ 1.03 µM)		> 10	> 10
